According to patent publication US5792780A, “Azole compounds, their production and use” (Takeda Chemical Industries, Ltd., priority 1993, dated 1998):

Tests used:
Candida utilis IFO 0619 = experiment: growth inhibition zone, paper disc agar diffusion; type: cell-based; settings: Williopsis jadinii, IFO0619, 48 h, Medium A, 1000 μg/ml, 28° C., two days, read-out: Diameter of growth inhibition zone
Method: (§1) Evaluation of the antifungal activities of the compound of the present invention was conducted by the following method: a sheet of filter paper disc (manufactured by Toyo Seisakusho, 8 mm in diameter) soaked in a 1000 μg/ml solution of a compound of the present invention in methanol was placed on an agar plate containing various fungi, which was incubated at 28° C. for two days, and the diameter of the growth inhibition zone around the filter paper disc was measured. The following culture media were used:
(§2) A: yeast nitrogen base agar medium (pH 7.0)
(§3) B: peptone-yeast extract-glucose agar medium (pH 7.0)

[1] = test system: Aspergillus niger IFO 4066; experiment: growth inhibition zone, paper disc agar diffusion; type: cell-based; settings: IFO4066, 48 h, Medium A, 1000 μg/ml, 28° C., two days, read-out: Diameter of growth inhibition zone
Method: as §1, §2, §3

[2] = test system: Trichophyton rubrum IFO 5467; experiment: growth inhibition zone, paper disc agar diffusion; type: cell-based; settings: IFO5467, 48 h, Medium B, 1000 μg/ml, 28° C., two days, read-out: Diameter of growth inhibition zone
Method: as §1, §2, §3

[3] = test system: Trichophyton mentagrophytes IFO 7522; experiment: growth inhibition zone, paper disc agar diffusion; type: cell-based; settings: IFO7522, 48 h, Medium B, 1000 μg/ml, 28° C., two days, read-out: Diameter of growth inhibition zone
Method: as §1, §2, §3

[4] = test system: Cryptococcus neoformans IFO 0410; experiment: growth inhibition zone, paper disc agar diffusion; type: cell-based; settings: IFO0410, 48 h, Medium A, 1000 μg/ml, 28° C., two days, read-out: Diameter of growth inhibition zone
Method: as §1, §2, §3

[5] = test system: Microsporum gypseum IFO 6076; experiment: growth inhibition zone, paper disc agar diffusion; type: cell-based; settings: Nannizzia gypsea, IFO6076, 48 h, Medium B, 1000 μg/ml, 28° C., two days, read-out: Diameter of growth inhibition zone
Method: as §1, §2, §3

[6] = test system: Aspergillus fumigatus IFO 6344; experiment: growth inhibition zone, paper disc agar diffusion; type: cell-based; settings: IFO6344, 48 h, Medium A, 1000 μg/ml, 28° C., two days, read-out: Diameter of growth inhibition zone
Method: as §1, §2, §3

[7] = test system: Candida albicans IFO 0583; experiment: growth inhibition zone, paper disc agar diffusion; type: cell-based; settings: IFO0583, 48 h, Table 5, Medium A, 1000 μg/ml, 28° C., two days, read-out: Diameter of growth inhibition zone
Method: as §1, §2, §3

Candida albicans TA = experiment: protective effect against experimental infection in mice (survival rate 7 days after infection); type: in vivo, Crj:CDF1 mice; settings: po, 168 h, Table 7, P.O. once immediately after infection, 0.2% CMC, survival 7 days after infection
Method: (§4) Test Method: Five-week-old Crj:CDF1 mice were inoculated with the minimum lethal dose of Candida albicans TA intravenously. The test compound was suspended in a solution of 0.2% or 0.5% sodium carboxymethylcellulose (CMC). The suspension was administered orally once immediately after infection. The activity was expressed in terms of ED50 values calculated by the Reed and Muench method from the survival rate 7 days after infection.
as §4, with “of” for “of 0.2% or”

Compound	zone of inhibition at 1000 µg/mL (Candida utilis IFO 0619) [mm]	zone of inhibition at 1000 µg/mL [1] [mm]	zone of inhibition at 1000 µg/mL [2] [mm]	zone of inhibition at 1000 µg/mL [3] [mm]	zone of inhibition at 1000 µg/mL [4] [mm]	zone of inhibition at 1000 µg/mL [5] [mm]	zone of inhibition at 1000 µg/mL [6] [mm]	zone of inhibition at 1000 µg/mL [7] [mm]	ED50 (Candida albicans TA) [mg/kg]
C[C@@H](N1CCN(c2ccc(OC(F)(F)F)cc2)C1=O)[C@](O)(Cn1cncn1)c1ccc(F)cc1F [Compound 1, 1-[(1R,2R)-2-(2,4-difluorophenyl)-2-hydroxy-1-methyl-3-(1H-1,2,4-triazol-1-yl)propyl]-3-(4-trifluoromethoxyphenyl)-2-imidazolidinone]	25	24	47	48	27	49	31	36	1.4
C[C@@H](N1CCN(c2ccc(F)cc2F)C1=O)[C@](O)(Cn1cncn1)c1ccc(F)cc1F [Compound 2, 1-[(1R,2R)-2-(2,4-difluorophenyl)-2-hydroxy-1-methyl-3-(1H-1,2,4-triazol-1-yl)propyl]-3-(2,4-difluorophenyl)-2-imidazolidinone]	29	27	50	40	31	41	30	45	
C[C@@H](N1CCN(c2ccc(C(F)(F)F)cc2)C1=O)[C@](O)(Cn1cncn1)c1ccc(F)cc1F [Compound 4, 1-[(1R,2R)-2-(2,4-difluorophenyl)-2-hydroxy-1-methyl-3-(1H-1,2,4-triazol-1-yl)propyl]-3-(4-trifluoromethylphenyl)-2-imidazolidinone]	31	26	43	39	29	42	34	41	0.65
